Data on one compound can be found in ChEMBL document CHEMBL2331203, “Optimization of inhibitors of the tyrosine kinase EphB4. 2. Cellular potency improvement and binding mode validation by X-ray crystallography” (J Med Chem, 2013).

Data set [1] deals with DU-145. Briefly: Cytotoxicity against human PRXF DU145 cells after 4 days by propidium iodide staining. To be noted: DU-145, 96 h.
Data set [2] is described as follows: Cytotoxicity against human PAXF 1657L cells after 4 days by propidium iodide staining. To be noted: 96 h.
Data set [3] is described as follows: Cytotoxicity against human LXFA 983L cells after 4 days by propidium iodide staining. The following applies: 96 h.
The nature of data set [4]: Cytotoxicity against human CXF 1103L cells after 4 days by propidium iodide staining. The following applies: 96 h.
Data set [5] has as its target T1, Ephrin type-B receptor 1 (Homo sapiens) (UniProt P54762).
T1 sequence (whole entry): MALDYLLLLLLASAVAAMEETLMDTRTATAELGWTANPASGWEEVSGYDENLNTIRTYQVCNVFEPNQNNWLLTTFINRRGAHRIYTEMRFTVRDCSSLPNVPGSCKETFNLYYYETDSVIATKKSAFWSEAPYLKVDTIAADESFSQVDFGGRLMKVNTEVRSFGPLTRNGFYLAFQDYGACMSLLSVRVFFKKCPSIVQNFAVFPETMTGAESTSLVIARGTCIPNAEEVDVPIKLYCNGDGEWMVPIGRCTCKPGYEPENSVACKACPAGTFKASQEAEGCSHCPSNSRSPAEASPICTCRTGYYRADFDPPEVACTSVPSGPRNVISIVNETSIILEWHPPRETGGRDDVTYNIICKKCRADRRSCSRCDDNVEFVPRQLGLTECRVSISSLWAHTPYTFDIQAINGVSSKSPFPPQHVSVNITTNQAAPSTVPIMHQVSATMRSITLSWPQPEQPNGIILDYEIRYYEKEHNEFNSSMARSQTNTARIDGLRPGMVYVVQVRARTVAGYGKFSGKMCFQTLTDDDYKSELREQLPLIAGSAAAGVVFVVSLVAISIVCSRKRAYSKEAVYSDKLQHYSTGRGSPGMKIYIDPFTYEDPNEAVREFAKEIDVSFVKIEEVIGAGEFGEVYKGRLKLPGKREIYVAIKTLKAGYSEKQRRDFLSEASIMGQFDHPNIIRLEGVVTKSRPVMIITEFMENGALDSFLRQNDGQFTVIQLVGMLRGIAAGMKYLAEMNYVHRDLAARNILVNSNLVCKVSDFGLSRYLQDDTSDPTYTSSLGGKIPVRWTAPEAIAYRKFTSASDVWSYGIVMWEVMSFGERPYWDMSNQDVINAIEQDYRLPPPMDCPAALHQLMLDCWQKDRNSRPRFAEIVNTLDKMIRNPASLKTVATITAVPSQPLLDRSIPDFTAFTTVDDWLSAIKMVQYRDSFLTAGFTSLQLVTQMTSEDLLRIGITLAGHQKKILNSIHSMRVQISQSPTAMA
Briefly: Inhibition of human Eph-B1 using [gamma-33P]ATP assessed as residual activity at 3 uM after 30 mins by radiometric assay.

In data set [6] the target is Ephrin type-A receptor 4 (Homo sapiens) (UniProt P54764). Briefly: Inhibition of human Eph-A4 using [gamma-33P]ATP assessed as residual activity at 3 uM after 30 mins by radiometric assay.
Data set [7] concerns the target Ephrin type-A receptor 2 (Homo sapiens) (UniProt P29317). Briefly: Inhibition of human Eph-A2 using [gamma-33P]ATP assessed as residual activity at 3 uM after 30 mins by radiometric assay.
The target in data set [8] is Tyrosine-protein kinase CSK (Homo sapiens) (UniProt P41240). Briefly: Inhibition of human CSK using [gamma-33P]ATP assessed as residual activity at 3 uM after 30 mins by radiometric assay.
The target of data set [9] is T2, Tyrosine-protein kinase Yes (Homo sapiens, UniProt P07947). Briefly: Inhibition of human Yes1 using [gamma-33P]ATP assessed as residual activity at 3 uM after 30 mins by radiometric assay.
Target sequence in this assay (P07947 2-543 limits assumed): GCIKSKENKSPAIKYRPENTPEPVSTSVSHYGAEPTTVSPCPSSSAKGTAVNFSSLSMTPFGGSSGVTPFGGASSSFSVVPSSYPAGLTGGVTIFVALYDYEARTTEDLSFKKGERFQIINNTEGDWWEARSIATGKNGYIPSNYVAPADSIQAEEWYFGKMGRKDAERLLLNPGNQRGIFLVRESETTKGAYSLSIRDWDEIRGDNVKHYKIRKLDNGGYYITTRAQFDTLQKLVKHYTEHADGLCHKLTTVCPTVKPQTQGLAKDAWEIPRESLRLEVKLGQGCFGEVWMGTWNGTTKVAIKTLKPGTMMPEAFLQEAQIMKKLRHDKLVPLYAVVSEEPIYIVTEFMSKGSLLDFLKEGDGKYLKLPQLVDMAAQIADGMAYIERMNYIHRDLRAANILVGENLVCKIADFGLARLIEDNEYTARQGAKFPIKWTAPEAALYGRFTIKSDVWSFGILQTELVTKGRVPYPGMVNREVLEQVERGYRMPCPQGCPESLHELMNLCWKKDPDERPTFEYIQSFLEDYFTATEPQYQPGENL
The target in data set [10] is T2, Tyrosine-protein kinase Yes. Briefly: Inhibition of Yes1 (unknown origin) using [gamma-33P]ATP after 30 mins by radiometric assay.
Target sequence in this assay (P07947 whole entry): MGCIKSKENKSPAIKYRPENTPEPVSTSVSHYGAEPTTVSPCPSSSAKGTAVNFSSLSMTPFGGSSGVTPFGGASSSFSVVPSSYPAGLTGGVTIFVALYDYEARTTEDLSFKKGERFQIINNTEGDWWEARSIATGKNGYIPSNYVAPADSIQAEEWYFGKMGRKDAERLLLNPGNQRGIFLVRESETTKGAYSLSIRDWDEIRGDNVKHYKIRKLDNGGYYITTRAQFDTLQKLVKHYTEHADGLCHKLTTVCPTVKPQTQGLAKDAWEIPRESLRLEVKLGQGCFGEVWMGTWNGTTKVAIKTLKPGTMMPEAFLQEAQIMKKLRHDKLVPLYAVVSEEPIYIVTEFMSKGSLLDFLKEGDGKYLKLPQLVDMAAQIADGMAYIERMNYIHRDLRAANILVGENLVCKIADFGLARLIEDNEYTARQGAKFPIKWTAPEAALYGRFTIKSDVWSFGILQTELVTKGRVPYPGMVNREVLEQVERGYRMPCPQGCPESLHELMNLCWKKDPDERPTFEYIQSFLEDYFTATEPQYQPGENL
A short description of data set [11]: Apparent permeability from apical to basolateral side in human Caco2 cells after 2 hrs by LC-MS/MS analysis. The data set is classed as ADME, cell-based. To be noted: Caco-2.
A short description of data set [12]: Permeability from basolateral to apical side in human Caco2 cells assessed as compound recovery after 2 hrs by LC-MS/MS analysis. In kind it is ADME, cell-based. The following applies: Caco-2, read-out: permeability. (In general: Caco-2 monolayers are a common model of the intestinal barrier.)
Data set [13] can be described thus: Permeability from apical to basolateral side in human Caco2 cells assessed as compound recovery after 2 hrs by LC-MS/MS analysis. In kind it is ADME, cell-based. The following applies: Caco-2, read-out: permeability.
Data set [14] addresses T3, Ephrin type-B receptor 4 (Homo sapiens, UniProt P54760).
T3 sequence (P54760 whole entry): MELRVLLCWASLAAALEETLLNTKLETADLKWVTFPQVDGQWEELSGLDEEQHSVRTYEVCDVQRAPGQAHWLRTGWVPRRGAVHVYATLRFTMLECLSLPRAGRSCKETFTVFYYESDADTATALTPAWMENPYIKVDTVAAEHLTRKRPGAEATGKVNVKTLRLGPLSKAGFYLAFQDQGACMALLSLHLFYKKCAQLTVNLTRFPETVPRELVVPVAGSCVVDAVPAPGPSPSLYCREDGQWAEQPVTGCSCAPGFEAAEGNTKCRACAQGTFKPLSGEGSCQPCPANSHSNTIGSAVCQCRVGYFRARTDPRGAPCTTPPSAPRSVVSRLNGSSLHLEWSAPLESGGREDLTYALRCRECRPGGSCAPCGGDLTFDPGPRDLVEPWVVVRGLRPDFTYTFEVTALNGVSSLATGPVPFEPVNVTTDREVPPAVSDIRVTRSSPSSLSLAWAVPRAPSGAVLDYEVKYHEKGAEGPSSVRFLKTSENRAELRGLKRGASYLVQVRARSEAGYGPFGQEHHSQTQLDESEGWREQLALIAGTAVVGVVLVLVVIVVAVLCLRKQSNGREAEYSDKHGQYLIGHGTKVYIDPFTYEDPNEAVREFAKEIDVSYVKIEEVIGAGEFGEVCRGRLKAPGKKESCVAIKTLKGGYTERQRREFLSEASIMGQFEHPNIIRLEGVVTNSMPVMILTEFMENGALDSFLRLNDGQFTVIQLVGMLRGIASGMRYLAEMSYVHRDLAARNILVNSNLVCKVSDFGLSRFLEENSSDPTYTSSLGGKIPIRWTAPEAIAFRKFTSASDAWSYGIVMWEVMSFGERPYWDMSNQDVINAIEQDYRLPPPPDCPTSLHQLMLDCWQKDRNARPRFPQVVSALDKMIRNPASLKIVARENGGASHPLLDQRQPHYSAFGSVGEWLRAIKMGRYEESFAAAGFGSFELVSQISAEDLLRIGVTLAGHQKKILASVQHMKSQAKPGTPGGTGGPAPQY
Briefly: Inhibition of EphB4 (unknown origin) transfected in CHO cells using Z'-LYTE TYR-1 peptide as substrate after 2 hrs by FRET assay. The data set is classed as cell-based.

Data set [15] concerns the target Tyrosine-protein kinase ABL1 (Homo sapiens, UniProt P00519).
Description: Inhibition of Abl (unknown origin) using [gamma-33P]ATP after 30 mins by radiometric assay
Data set [16] addresses Proto-oncogene tyrosine-protein kinase Src (Homo sapiens, UniProt P12931).
Description: Inhibition of Src (unknown origin) using [gamma-33P]ATP after 30 mins by radiometric assay
The target in data set [17] is T3, Ephrin type-B receptor 4.
Description: Inhibition of EphB4 (unknown origin) transfected in CHO cells using [gamma-33P]ATP by radiometric assay
Data set [18] is described as follows: in vitro. To be noted: human, Caco-2.
Description: Efflux ratio of apparent permeability from basolateral to apical side to apical to basolateral side in human Caco2 cells

Sequence of Proto-oncogene tyrosine-protein kinase Src (P12931 2-536 limits assumed): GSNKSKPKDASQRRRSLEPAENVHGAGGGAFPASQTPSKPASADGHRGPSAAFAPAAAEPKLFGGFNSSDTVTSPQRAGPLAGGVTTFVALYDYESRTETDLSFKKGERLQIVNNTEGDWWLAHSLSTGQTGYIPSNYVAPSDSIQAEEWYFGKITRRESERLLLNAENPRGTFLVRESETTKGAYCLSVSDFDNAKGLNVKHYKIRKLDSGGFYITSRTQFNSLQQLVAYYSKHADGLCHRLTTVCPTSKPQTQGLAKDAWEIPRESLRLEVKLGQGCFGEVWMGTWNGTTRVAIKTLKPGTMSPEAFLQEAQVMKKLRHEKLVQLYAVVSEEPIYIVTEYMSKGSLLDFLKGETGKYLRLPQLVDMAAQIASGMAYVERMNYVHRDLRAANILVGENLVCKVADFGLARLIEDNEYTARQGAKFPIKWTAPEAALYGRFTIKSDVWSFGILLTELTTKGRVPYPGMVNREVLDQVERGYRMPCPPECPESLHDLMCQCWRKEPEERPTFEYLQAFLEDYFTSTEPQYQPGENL
Sequence of Ephrin type-A receptor 4 (Homo sapiens) (P54764 whole entry): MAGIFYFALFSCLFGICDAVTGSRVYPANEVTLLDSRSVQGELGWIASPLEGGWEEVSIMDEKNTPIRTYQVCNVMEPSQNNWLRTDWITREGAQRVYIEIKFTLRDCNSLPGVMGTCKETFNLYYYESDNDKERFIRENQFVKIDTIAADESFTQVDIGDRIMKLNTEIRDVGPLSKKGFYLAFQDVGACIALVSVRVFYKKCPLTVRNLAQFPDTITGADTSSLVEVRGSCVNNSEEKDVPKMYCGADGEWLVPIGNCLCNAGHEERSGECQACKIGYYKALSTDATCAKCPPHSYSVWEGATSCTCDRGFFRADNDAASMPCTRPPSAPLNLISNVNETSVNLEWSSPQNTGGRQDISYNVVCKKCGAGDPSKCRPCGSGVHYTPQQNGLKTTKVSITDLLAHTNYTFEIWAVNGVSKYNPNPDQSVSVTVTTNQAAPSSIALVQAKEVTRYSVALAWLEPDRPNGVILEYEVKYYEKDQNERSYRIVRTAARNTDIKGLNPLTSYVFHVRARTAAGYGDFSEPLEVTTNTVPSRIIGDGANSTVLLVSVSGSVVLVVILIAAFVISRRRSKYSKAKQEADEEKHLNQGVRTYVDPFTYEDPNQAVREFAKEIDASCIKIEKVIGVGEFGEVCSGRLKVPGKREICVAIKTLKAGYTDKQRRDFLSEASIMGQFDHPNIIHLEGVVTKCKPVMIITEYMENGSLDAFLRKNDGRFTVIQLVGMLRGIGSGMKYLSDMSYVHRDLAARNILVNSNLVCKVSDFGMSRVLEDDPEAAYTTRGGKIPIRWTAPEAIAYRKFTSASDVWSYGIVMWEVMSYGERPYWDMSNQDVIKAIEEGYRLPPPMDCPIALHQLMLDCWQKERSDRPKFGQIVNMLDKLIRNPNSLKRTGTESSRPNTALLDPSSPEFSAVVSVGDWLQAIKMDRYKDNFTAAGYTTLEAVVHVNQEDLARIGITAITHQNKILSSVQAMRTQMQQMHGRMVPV
Sequence of Ephrin type-A receptor 2 (Homo sapiens) (P29317 whole entry): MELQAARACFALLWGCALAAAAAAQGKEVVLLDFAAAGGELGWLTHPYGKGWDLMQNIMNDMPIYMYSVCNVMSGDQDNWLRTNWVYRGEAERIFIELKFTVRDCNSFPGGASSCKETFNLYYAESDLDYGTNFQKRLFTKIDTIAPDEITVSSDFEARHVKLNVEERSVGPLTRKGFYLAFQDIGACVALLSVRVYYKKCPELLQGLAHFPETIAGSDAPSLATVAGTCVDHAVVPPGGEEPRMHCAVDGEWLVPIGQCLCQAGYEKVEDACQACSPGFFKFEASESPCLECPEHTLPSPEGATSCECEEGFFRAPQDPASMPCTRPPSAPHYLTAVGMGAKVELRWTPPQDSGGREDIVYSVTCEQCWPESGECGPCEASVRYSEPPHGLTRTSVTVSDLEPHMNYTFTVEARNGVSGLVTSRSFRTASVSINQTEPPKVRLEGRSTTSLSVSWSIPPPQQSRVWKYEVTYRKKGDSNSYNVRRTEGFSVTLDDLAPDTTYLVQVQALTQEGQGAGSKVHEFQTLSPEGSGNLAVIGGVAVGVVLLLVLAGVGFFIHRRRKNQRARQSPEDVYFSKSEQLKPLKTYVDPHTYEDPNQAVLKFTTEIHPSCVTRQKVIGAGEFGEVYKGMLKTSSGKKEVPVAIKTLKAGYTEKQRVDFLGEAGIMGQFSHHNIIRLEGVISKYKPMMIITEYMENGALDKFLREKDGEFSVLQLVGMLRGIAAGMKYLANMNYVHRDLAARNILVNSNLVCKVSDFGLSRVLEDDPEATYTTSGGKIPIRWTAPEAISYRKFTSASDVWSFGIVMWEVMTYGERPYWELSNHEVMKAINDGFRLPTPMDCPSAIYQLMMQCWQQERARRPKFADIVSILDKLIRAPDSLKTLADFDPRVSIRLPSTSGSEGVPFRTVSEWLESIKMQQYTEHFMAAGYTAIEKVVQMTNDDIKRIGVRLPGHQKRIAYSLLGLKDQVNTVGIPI
Sequence of Tyrosine-protein kinase ABL1 (P00519 whole entry): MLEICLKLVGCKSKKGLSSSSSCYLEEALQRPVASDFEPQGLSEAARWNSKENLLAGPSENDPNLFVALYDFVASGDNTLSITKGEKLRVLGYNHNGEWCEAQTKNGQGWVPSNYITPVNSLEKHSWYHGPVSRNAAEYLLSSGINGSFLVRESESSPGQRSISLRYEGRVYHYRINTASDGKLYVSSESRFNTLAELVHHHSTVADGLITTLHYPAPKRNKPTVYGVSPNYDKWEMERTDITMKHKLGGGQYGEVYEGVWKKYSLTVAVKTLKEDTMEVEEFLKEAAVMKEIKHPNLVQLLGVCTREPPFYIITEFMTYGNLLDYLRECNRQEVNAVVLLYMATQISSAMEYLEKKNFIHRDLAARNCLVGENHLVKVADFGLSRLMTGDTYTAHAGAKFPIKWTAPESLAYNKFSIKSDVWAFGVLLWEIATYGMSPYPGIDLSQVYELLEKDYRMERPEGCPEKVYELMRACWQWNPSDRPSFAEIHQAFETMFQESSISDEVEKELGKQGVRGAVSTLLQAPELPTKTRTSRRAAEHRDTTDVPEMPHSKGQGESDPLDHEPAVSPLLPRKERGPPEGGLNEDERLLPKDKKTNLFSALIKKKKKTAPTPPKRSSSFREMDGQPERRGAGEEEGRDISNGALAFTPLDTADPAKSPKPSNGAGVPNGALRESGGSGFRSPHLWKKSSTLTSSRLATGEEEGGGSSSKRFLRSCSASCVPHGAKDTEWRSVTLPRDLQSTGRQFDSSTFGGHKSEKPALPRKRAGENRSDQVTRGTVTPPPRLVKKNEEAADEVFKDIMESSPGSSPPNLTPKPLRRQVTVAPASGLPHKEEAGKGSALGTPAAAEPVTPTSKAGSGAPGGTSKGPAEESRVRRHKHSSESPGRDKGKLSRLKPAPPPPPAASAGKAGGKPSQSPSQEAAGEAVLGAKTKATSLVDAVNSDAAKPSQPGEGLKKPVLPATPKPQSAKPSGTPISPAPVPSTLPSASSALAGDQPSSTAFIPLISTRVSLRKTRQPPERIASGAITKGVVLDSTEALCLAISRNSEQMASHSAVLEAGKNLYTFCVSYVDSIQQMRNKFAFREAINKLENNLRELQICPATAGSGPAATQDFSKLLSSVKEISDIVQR

The term IC50 denotes the midpoint of a concentration-inhibition curve. A higher IC50 goes with lower potency. By Papp A→B is commonly meant how fast a substance crosses the layer from the apical side. One may read the efflux ratio as a quotient of directional permeabilities that is used to spot active efflux. `CCCCn1c(-c2ccccc2C)cn2c3c(=O)[nH]c(=O)n(C)c3nc12`: the IC50 was 11200 nM in data set [1]; 8100 nM in [2]; 5450 nM in [3]; 4610 nM in data set [4]; 284 nM in [10]; 56 nM in data set [14]. Besides, the IC50 in [15] amounted to 578 nM; in data set [16], 71 nM; in data set [17], 82 nM. Moreover, the Activity in [5] came to 10%; in data set [6] it was 5%; in [7], 6%; in [8], 57%; in data set [9], 14%. In addition, the Papp A→B at 2 h in [11] was found to be 42.7 ×10⁻⁶ cm/s. In addition, the recovery at 2 h in data set [12] was found to be 89%; in data set [13], 85%. Moreover, the efflux ratio in data set [18] turned out to be 0.7.
